Test in all cases: Resazurin viability, cell line panel
Common to all, as to format: cell-based
For orientation: Resazurin is reduced to fluorescent resorufin, in cell work by metabolically active cells.

Assay [1] concerns non-transformed cell lines. Conditions: Figure 3F, read-out: EC50 (loss of proliferation), average over cell lines. How it is done: (§1) Cells were seeded in 96- or 384-well plates and incubated for 3 days for combination experiments or 5 days for single-drug exposure experiments. Resazurin (R7017, SigmaAldrich) was added to a final concentration of 0.01 mg/ml resazurin and fluorescence was measured at ex530/em590 after incubation for 2, 4 or 6 h. Curves were fitted using XLfit software (IDBS) or Prism 8.0 (Graphpad Software), and EC50 values were determined.
(§2) Figure 3. The OGG1 inhibitor TH5487 is selectively toxic to oncogene-expressing cells and cancer cell lines. (A) Close-up view of ligand TH5487 (green) binding to human OGG1. Important residues in the binding site are marked, hydrogen bond interactions are shown in black dashed line, water (red sphere)-mediated interactions in grey dashed line. (B) Comparison between the binding of ligand TH5487 (green) to human OGG1 (gray) with the structure of TH5675 (pink) bound to mouse OGG1 (yellow, PDB 6G3Y). (C) Viability of BJ-Tert and BJ-Ras cells exposed to the indicated concentrations TH5487 for five days. Data are average ±SD of four technical replicates from two independent experiments. (D) Clonogenic survival of cell lines exposed to TH5487. The cancer cell lines ACHN and H460, and the non-transformed cell lines MRC5 and Ogg1^−/− mouse embryonic fibroblasts (MEF) were incubated for 6–11 days in the presence of the indicated concentrations TH5487, followed by colony enumeration. Data are average ±SD values of four technical replicates, representative of three independent experiments. (E) TH5487 selectively decreases viability of cancer cell lines. EC50-values of 34 cancer (red) and 7 non-transformed cell lines (blue). Cells were exposed to a dilution series of TH5487 for five days followed by a viability assessment using resazurin. All cell lines were tested in two to ten independent experiments. Each point represents the EC50-value from one experiment (average of two or three technical replicates). (F) Comparative analysis of EC50 values for TH5487 in cancer- and non-transformed cell lines, and CD34+ hematopoietic stem cells, CD34- fraction from cord blood or PBMCs from healthy donor blood. All primary blood cells were tested upon activation with Dynabeads/Phytohemagglutinin or not and exposed to a dilution series of TH5487 to calculate EC50 values by resazurin assay.

The next assay concerns cancer cell lines. How it is done:
as §1, §2

Assay [2] relates to Hematological cancer cell lines. Conditions: read-out: EC50, average over cell lines. How it is done:
as §1, §2

`O=C(Nc1ccc(I)cc1)N1CCC(n2c(=O)[nH]c3c(Br)cccc32)CC1` [TH5487]: the EC50 in assay [1] stood at 36.9 ± 7.5 µM; in the assay on cancer cell lines (tested cancer cell lines, Figure 3F, read-out: EC50 (loss of proliferation), average over cell lines) it was 17.9 ± 6.9 µM; in assay [2] it was 14.7 ± 4.7 µM. The “Selectivity of growth inhibition, cancer vs non-transformed cell lines” value with cancer cell lines (large panel of cancer and non-transformed cell lines, 5 days) is listed as “caused loss of viability in cancer cells while being better tolerated in non-transformed cell lines”.

For the origin of these results see publication PMC7708037, “Targeting OGG1 arrests cancer cell proliferation by inducing replication stress” (Nucleic Acids Research, 2020).
